# Patent publication US20100137309A1, “FUNGICIDES PHENYL-PYRIMIDNYL-AMINO DERIVATIVES” (priority 2007, published 2010)
# Test system: not listed separately
# Assay: Log p of the compounds of Table A
# Details: not given
row,Compound,Log p
1,COCCN(C)C(=O)c1cc(-c2ccnc(Nc3cc(F)ccc3F)n2)ccn1 [Compound A230],2.52
2,CCN(C)C(=O)c1cc(-c2ccnc(Nc3cc(Cl)ccc3F)n2)ccn1 [Compound A232],2.94
3,CCCN(CC)C(=O)c1cc(-c2ccnc(Nc3cc(Cl)ccc3F)n2)ccn1 [Compound A234],3.69
4,CCCN(CC1CC1)C(=O)c1cc(-c2ccnc(Nc3cc(Cl)ccc3F)n2)ccn1 [Compound A242],4.20
5,CCCCN(C)C(=O)c1cc(-c2ccnc(Nc3cccc(C(C)C)c3)n2)ccn1 [Compound A262],4.04

# Test system: not listed separately
# Assay: Log p of the compounds of Table A
# Details: not given
# Remark: another data set of the same source
row,logP,Compound
1,2.5,"CN(C)C(=O)c1cc(-c2ccnc(Nc3cccc(Cl)c3)n2)ccn1 [Compound A76, 4-{2-[(3-chlorophenyl)amino]pyrimidin-4-yl}-N,N-dimethylpyridine-2-carboxamide]"
2,3.19,"CCN(CC)C(=O)c1cc(-c2ccnc(Nc3cccc(Cl)c3)n2)ccn1 [Compound A77, 4-{2-[(3-chlorophenyl)amino]pyrimidin-4-yl}-N,N-diethylpyridine-2-carboxamide]"
3,4.46,"CON=C(C)c1cc(-c2ccnc(Nc3cccc(Cl)c3)n2)ccn1 [Compound A93, N-(3-chlorophenyl)-4-{2-[-N-methoxyethanimidoyl]pyridin-4-yl}pyrimidin-2-amine]"
4,2.44,"CC(=NNCCC#N)c1cc(-c2ccnc(Nc3cccc(Cl)c3)n2)ccn1 [Compound A108, 3-{2-[1-(4-{2-[(3-chlorophenyl)amino]pyrimidin-4-yl}pyridin-2-yl)ethylidene]hydrazinyl}propanenitrile]"
5,3.5,"CC(=O)c1cc(-c2ccnc(Nc3cccc(Cl)c3)n2)ccn1 [Compound A110, 1-(4-{2-[(3-chlorophenyl)amino]pyrimidin-4-yl}pyridin-2-yl)ethanone]"

# Test system: not listed separately
# Assay: Log p of the compounds of Table A
# Details: not given
# Remark: another data set of the same source
row,Compound,Log p
1,CC(C)N(C)C(=O)c1cc(-c2ccnc(Nc3ccc(N4CCCC4=O)cc3)n2)ccn1 [Compound A325],2.04

# Test system: Sphaerotheca fuliginea
# Assay: In vivo test on Sphaerotheca fuliginea (cucurbits powdery mildew), DMF/emulsifier preparation (Example B)
# Details: 500 ppm; young cucurbit plants sprayed preventively one day before inoculation; grading 7 days after contamination
# Description: In Vivo Test on Sphaerotheca fuliginea (Cucurbits Powdery Mildew) To produce a suitable preparation of active compound, 1 part by weight of active compound is mixed with 49 parts by weight of solvent (N,N-dimethylformamide) and 1 part by weight of emulsifier (alkylarylpolyglycolether), and the concentrate is diluted with water to the desired concentration. To test for preventive activity, young cucurbit plants are sprayed with the preparation of active compound at the stated rate of application. One day after this treatment, the plants are inoculated with an aqueous spore suspension of Sphaerotheca fuliginea. […] Grading is carried out 7 days after the contamination, in comparison with the control plants. […] A16.
row,Compound,good protection
1,COCCOC(=O)c1cc(-c2ccnc(Nc3cccc(OC)c3)n2)ccn1 [Compound A16],at least 70%

# Test system: not listed separately
# Assay: Log p determination of the compounds of Table A
# Details: not given
row,logP,Compound
1,3.19,"CCN(CC)C(=S)c1cc(-c2ccnc(Nc3cccc(Cl)c3)n2)ccn1 [Compound A391, 4-{2-[(3-chlorophenyl)amino]pyrimidin-4-yl}-N,N-diethylpyridine-2-carbothioamide]"

# Test system: not listed separately
# Assay: Log p of the compounds of Table A
# Details: not given
# Remark: another data set of the same source
row,logP,Compound
1,2.98,"O=C(NCCCN1CCCCCC1=O)c1cc(-c2ccnc(Nc3cccc(Cl)c3)n2)ccn1 [Compound A1, 4-{2-[(3-chlorophenyl)amino]pyrimidin-4-yl}-N-[3-(2-oxoazepan-1-yl)propyl]pyridine-2-carboxamide]"
2,4.7,"CC(C)CCNC(=O)c1cc(-c2ccnc(Nc3cccc(Cl)c3)n2)ccn1 [Compound A19, 4-{2-[(3-chlorophenyl)amino]pyrimidin-4-yl}-N-(3-methylbutyl)pyridine-2-carboxamide]"

# Same assay, conditions: Table A
row,Compound,Log p
1,CC(CN(C)C)NC(=O)c1cc(-c2ccnc(Nc3cccc(Cl)c3)n2)ccn1 (stereo not shown) [Compound A38],1.81
2,COCCCNC(=O)c1cc(-c2ccnc(Nc3cccc(Cl)c3)n2)ccn1 [Compound A39],3.31
3,O=C(NC1CCCC1)c1cc(-c2ccnc(Nc3cccc(Cl)c3)n2)ccn1 [Compound A40],4.48
4,CCC(CC)NC(=O)c1cc(-c2ccnc(Nc3cccc(Cl)c3)n2)ccn1 [Compound A44],4.72
5,CCC(COC)NC(=O)c1cc(-c2ccnc(Nc3cccc(Cl)c3)n2)ccn1 (stereo not shown) [Compound A45],4.02
6,CCC(C)NC(=O)c1cc(-c2ccnc(Nc3cccc(Cl)c3)n2)ccn1 (stereo not shown) [Compound A46],4.3
7,O=C(NC1CCC1)c1cc(-c2ccnc(Nc3cccc(Cl)c3)n2)ccn1 [Compound A47],4.1
8,CCCNC(=O)c1cc(-c2ccnc(Nc3cccc(Cl)c3)n2)ccn1 [Compound A56],3.8
9,CC(C)NC(=O)c1cc(-c2ccnc(Nc3cccc(Cl)c3)n2)ccn1 [Compound A57],3.83
10,CCCCNC(=O)c1cc(-c2ccnc(Nc3cccc(Cl)c3)n2)ccn1 [Compound A58],4.31
11,CNC(=O)c1cc(-c2ccnc(Nc3cccc(Cl)c3)n2)ccn1 [Compound A59],2.94
12,O=C(NC1CCS(=O)(=O)C1)c1cc(-c2ccnc(Nc3cccc(Cl)c3)n2)ccn1 (stereo not shown) [Compound A60],2.8
13,CCOC1CCC(NC(=O)c2cc(-c3ccnc(Nc4cccc(Cl)c4)n3)ccn2)CC1 (stereo not shown) [Compound A61],4.54
